Source: patent publication US11952346B2, “Modulators of mas-related G-protein receptor X2 and related products and methods” (Escient Pharmaceuticals, Inc., priority 2020, dated 2024)
pIC50: −log10 of the molar value.

Biological target: T1, human MRGPRX2 (Homo sapiens, UniProt Q96LB1)
T1 construct: expressed in transfected cells
T1 sequence (Q96LB1 1-330): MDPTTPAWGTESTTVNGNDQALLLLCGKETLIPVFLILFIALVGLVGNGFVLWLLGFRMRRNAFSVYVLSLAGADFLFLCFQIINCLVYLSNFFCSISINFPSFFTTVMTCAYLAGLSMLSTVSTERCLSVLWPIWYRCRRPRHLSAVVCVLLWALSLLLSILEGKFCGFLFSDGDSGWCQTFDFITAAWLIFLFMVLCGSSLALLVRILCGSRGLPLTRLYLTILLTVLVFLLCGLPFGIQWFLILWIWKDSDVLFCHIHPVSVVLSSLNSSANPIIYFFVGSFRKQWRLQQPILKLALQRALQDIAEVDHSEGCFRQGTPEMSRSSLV
Experiment: MRGPRX2 antagonist activity, IP-One HTRF assay in CHO cells expressing human MRGPRX2 versus Cortistatin-14
Type: cell-based
Conditions: not given
Procedure: CHO cells stably transfected to express human MRGPRX2 were maintained in an incubator at 37° C. with 5% CO2 and grown in F12 (HAM) media with 10% fetal bovine serum (FBS), 1% Glutamax, 1% penicillin/streptomycin, 800 μg/mL Geneticin (G418), and 300 μg/mL Hygromycin B. Cells were plated in a 384-well assay plate at 20,000 cells per well in 12 μL of Opti-MEM and kept in an incubator overnight. On the day of the assay, compounds solubilized at 10 mM in DMSO were added as a 10-point curve (30 uM final top concentration with 1:3 serial dilutions) using a Tecan D300E digital dispenser. Agonists were diluted in assay buffer (final concentrations of 5.7 mM Tris-HCl, 43 mM NaCl, 50 mM LiCI, pH=8) and 2 μL of the agonist Cortistatin-14 (CPC Scientific, catalog CORT-002) are added to each well. Final concentrations of agonists were […] Cortistatin-14. Final concentrations of DMSO were kept consistent across the plate. Plates were incubated in the dark for 1 hr at 37° C. and then for 1 hr at room temperature. IP-1 standards and HTRF detection reagents were added according to the IP-One—Gq Kit purchased from Cisbio (part number 621PAPEJ) and incubated in the dark for 1 hr at room temperature. The plate was read on a Molecular Devices SpectraMax iD5 plate reader. The HTRF ratio was calculated from the raw data and graphed using GraphPad Prism to calculate an IC50 value for each compound.
The activity ranges are denoted as follows: “+++++” denotes antagonist activity <100 nM; “++++” denotes antagonist activity between 100 and 500 nM; “+++” denotes activity between 501 and 1000 nM; “++” denotes activity between 1001 and 2500 nM; and “+” denotes activity >2500 nM.

| SMILES | pIC50 |
| --- | --- |
| Cn1nccc1C(=O)N[C@H]1CC[C@@H](Nc2ccc(C#N)c(C(F)(F)F)c2)CC1 [1-17] | 6.30 to 7.00 |
| CN(c1ccc(C(=O)N[C@H]2CC[C@@H](Nc3ccc(C#N)c(C(F)(F)F)c3)CC2)cc1)S(C)(=O)=O [1-18] | 6.30 to 7.00 |
| N#Cc1ccc(N[C@H]2CC[C@@H](NC(=O)c3c[nH]c4ccccc34)CC2)cc1C(F)(F)F [1-19] | > 7.00 |
| N#Cc1ccc(N[C@H]2CC[C@@H](NC(=O)c3ccc4nccn4c3)CC2)cc1C(F)(F)F [1-20] | 6.30 to 7.00 |

Same assay, conditions: CHO cells stably expressing human MRGPRX2; versus 0.3 uM Cortistatin-14 agonist; IP-1 HTRF readout; read-out: MRGPR2 Antagonist Activity

| SMILES | pIC50 |
| --- | --- |
| N=C(N)Nc1ccc(C(=O)N[C@H]2CC[C@@H](Nc3cc(C(F)(F)F)nc(C(F)(F)F)c3)CC2)cc1 (single isomer, unassigned) [4-55] | > 7.00 |
| COc1ccc(C(=O)N[C@H]2CCC[C@@H](Nc3cc(C(F)(F)F)cc(C(F)(F)F)c3)C2)cc1 (stereo in doubt) [example 5, N-((1S,3R)-3-((3,5-bis(trifluoromethyl)phenyl)amino)cyclohexyl)-4-methoxybenzamide] | 5.60 to 6.00 |
| O=C(N[C@H]1CC[C@@H](Nc2cc(C(F)(F)F)nc(C(F)(F)F)c2)CC1)c1ccc(F)cc1 [1-1] | 6.30 to 7.00 |
| CN(C)c1ccc(C(=O)N[C@H]2CC[C@@H](Nc3cc(C(F)(F)F)nc(C(F)(F)F)c3)CC2)cc1 [1-2] | 6.30 to 7.00 |
| COc1ccc(C(=O)N[C@H]2CC[C@@H](Nc3cc(C(F)(F)F)nc(C(F)(F)F)c3)CC2)cc1 [1-3] | 6.30 to 7.00 |
| N#Cc1cccc(C(=O)N[C@H]2CC[C@@H](Nc3cc(C(F)(F)F)nc(C(F)(F)F)c3)CC2)c1 [1-4] | 5.60 to 6.00 |
| Cc1ccoc1C(=O)N[C@H]1CC[C@@H](Nc2cc(C(F)(F)F)nc(C(F)(F)F)c2)CC1 [1-5] | 5.60 to 6.00 |
| COc1ccc(C(=O)N[C@@H]2CCC[C@H](Nc3nc(C(F)(F)F)nc4c3CCC4)C2)cc1 [1-6] | 5.60 to 6.00 |
| COc1cc(N[C@H]2CC[C@@H](NC(=O)c3ccc(F)cc3)CC2)nc(C(F)(F)F)n1 [1-7] | 5.60 to 6.00 |
| CN(C)c1nc(N[C@H]2CC[C@@H](NC(=O)c3ccc(F)cc3)CC2)cc(C(F)(F)F)n1 [1-8] | 6.00 to 6.30 |
| O=C(N[C@H]1CC[C@@H](Nc2cc(C(F)(F)F)nc(N3CCCC3)n2)CC1)c1ccc(F)cc1 [1-9] | 5.60 to 6.00 |
| CN(C)c1nc(N[C@H]2CC[C@@H](NC(=O)c3ccccc3)CC2)cc(C(F)(F)F)n1 [1-10] | 6.00 to 6.30 |
| O=C(N[C@H]1CC[C@@H](Nc2nc(C(F)(F)F)nc3c2CCCC3)CC1)c1ccc(F)cc1 [1-11] | 5.60 to 6.00 |
| N#Cc1ccc(N[C@H]2CC[C@@H](NC(=O)c3cccc4[nH]ccc34)CC2)cc1C(F)(F)F [1-12] | > 7.00 |
| CN(C)c1ccc(C(=O)N[C@H]2CC[C@@H](Nc3ccc(C#N)c(C(F)(F)F)c3)CC2)c(F)c1 [1-13] | 6.30 to 7.00 |
| CC(C)S(=O)(=O)Nc1ccc(C(=O)N[C@H]2CC[C@@H](Nc3ccc(C#N)c(C(F)(F)F)c3)CC2)cc1 [1-14] | > 7.00 |
| N#Cc1ccc(N[C@H]2CC[C@@H](NC(=O)c3csc(N)n3)CC2)cc1C(F)(F)F [1-15] | 6.30 to 7.00 |
| CN(C)c1cccc(C(=O)N[C@H]2CC[C@@H](Nc3ccc(C#N)c(C(F)(F)F)c3)CC2)c1 [1-16] | 6.30 to 7.00 |
| CN(C)c1ccc(C(=O)N[C@H]2CC[C@@H](Nc3ccc(C#N)c(C(F)(F)F)c3)CC2)cc1 [1-21] | > 7.00 |

| SMILES | pIC50 |
| --- | --- |
| N#Cc1ccc(N[C@H]2CC[C@@H](NC(=O)c3ccc(F)cc3)CC2)cc1C(F)(F)F [1-22] | 6.30 to 7.00 |
| COc1cccc(C(=O)N[C@H]2CC[C@@H](Nc3ccc(C#N)c(C(F)(F)F)c3)CC2)c1 [1-23] | 6.30 to 7.00 |
| N#Cc1ccc(N[C@H]2CC[C@@H](NC(=O)c3cccc4ncsc34)CC2)cc1C(F)(F)F [1-24] | 5.60 to 6.00 |
| N#Cc1ccc(N[C@H]2CC[C@@H](NC(=O)c3ccc(N4CCOCC4)cc3)CC2)cc1C(F)(F)F [1-25] | 6.30 to 7.00 |
| CN(C)c1ccc(C(=O)N[C@H]2CC[C@@H](Nc3cc(N(C)C)nc(C(F)(F)F)c3)CC2)cc1 [2-1] | 5.60 to 6.00 |
| COc1ccc(C(=O)N[C@H]2CC[C@@H](Nc3ccc(F)c(C(F)(F)F)c3)CC2)cc1 [2-2] | 6.00 to 6.30 |
| Cc1cc(N[C@H]2CC[C@@H](NC(=O)c3ccc4nccn4c3)CC2)cc(C(F)(F)F)c1C#N [2-3] | > 7.00 |
| COc1ccc(C(=O)N[C@H]2CC[C@@H](Nc3cc(C(F)(F)F)nc(N(C)C(C)C)n3)CC2)cc1 [3-1] | 5.60 to 6.00 |
| COc1cccc(C(=O)N[C@H]2CC[C@@H](Nc3cc(C(F)(F)F)nc(C(F)(F)F)c3)CC2)c1 [4-1] | 6.30 to 7.00 |
| O=C(N[C@H]1CC[C@@H](Nc2cc(C(F)(F)F)nc(C(F)(F)F)c2)CC1)n1cccc1 [4-2] | 6.30 to 7.00 |
| CNC(=O)Nc1cccc(C(=O)N[C@H]2CC[C@@H](Nc3cc(C(F)(F)F)nc(C(F)(F)F)c3)CC2)c1 [4-3] | 6.30 to 7.00 |
| CNc1ccc(C(=O)N[C@H]2CC[C@@H](Nc3cc(C(F)(F)F)nc(C(F)(F)F)c3)CC2)cc1 [4-4] | 6.30 to 7.00 |
| CC(=O)Nc1cccc(C(=O)N[C@H]2CC[C@@H](Nc3cc(C(F)(F)F)nc(C(F)(F)F)c3)CC2)c1 [4-5] | 6.30 to 7.00 |
| O=C(N[C@H]1CC[C@@H](Nc2cc(C(F)(F)F)nc(C(F)(F)F)c2)CC1)c1cccc2[nH]ccc12 [4-6] | 6.30 to 7.00 |
| O=C1Nc2c(C(=O)N[C@H]3CC[C@@H](Nc4cc(C(F)(F)F)nc(C(F)(F)F)c4)CC3)cccc2C1=O [4-7] | 5.60 to 6.00 |
| Cc1cc2[nH]cnc2cc1C(=O)N[C@H]1CC[C@@H](Nc2cc(C(F)(F)F)nc(C(F)(F)F)c2)CC1 [4-8] | 6.30 to 7.00 |
| O=C(N[C@H]1CC[C@@H](Nc2cc(C(F)(F)F)nc(C(F)(F)F)c2)CC1)c1cccc2ncsc12 [4-9] | 6.30 to 7.00 |
| CS(=O)(=O)Nc1cccc(C(=O)N[C@H]2CC[C@@H](Nc3cc(C(F)(F)F)nc(C(F)(F)F)c3)CC2)c1 [4-10] | 6.30 to 7.00 |
| CC(C#N)c1cccc(C(=O)N[C@H]2CC[C@@H](Nc3cc(C(F)(F)F)nc(C(F)(F)F)c3)CC2)c1 (stereo partly shown) [4-11] | 6.30 to 7.00 |

| SMILES | pIC50 |
| --- | --- |
| CCn1nccc1C(=O)N[C@H]1CC[C@@H](Nc2cc(C(F)(F)F)nc(C(F)(F)F)c2)CC1 [4-12] | 6.00 to 6.30 |
| N#Cc1ccc(C(=O)N[C@H]2CC[C@@H](Nc3cc(C(F)(F)F)nc(C(F)(F)F)c3)CC2)cc1 [4-13] | < 5.60 |
| O=C(N[C@H]1CC[C@@H](Nc2cc(C(F)(F)F)nc(C(F)(F)F)c2)CC1)c1ccc(Cl)cc1 [4-14] | 6.00 to 6.30 |
| CN1CCCc2ccc(C(=O)N[C@H]3CC[C@@H](Nc4cc(C(F)(F)F)nc(C(F)(F)F)c4)CC3)cc21 [4-15] | 5.60 to 6.00 |
| CC(C)C(=O)Nc1cccc(C(=O)N[C@H]2CC[C@@H](Nc3cc(C(F)(F)F)nc(C(F)(F)F)c3)CC2)c1 [4-16] | 6.00 to 6.30 |
| CN(C)c1ccc(C(=O)N[C@H]2CC[C@@H](Nc3cc(C(F)(F)F)nc(N(C)C)n3)CC2)cc1 [4-17] | 6.00 to 6.30 |
| CN(C)c1nc(N[C@H]2CC[C@@H](NC(=O)c3cccc(C#N)c3)CC2)cc(C(F)(F)F)n1 [4-18] | 5.60 to 6.00 |
| CN1CCCc2c(C(=O)N[C@H]3CC[C@@H](Nc4cc(C(F)(F)F)nc(C(F)(F)F)c4)CC3)cccc21 [4-19] | 5.60 to 6.00 |
| N=C(N)Nc1ccc(C(=O)N[C@H]2CC[C@@H](Nc3cc(C(F)(F)F)nc(C(F)(F)F)c3)CC2)cc1 [4-20] | 6.00 to 6.30 |
| CN1CCCc2cc(C(=O)N[C@H]3CC[C@@H](Nc4cc(C(F)(F)F)nc(C(F)(F)F)c4)CC3)ccc21 [4-21] | 6.00 to 6.30 |
| O=C(N[C@H]1CC[C@@H](Nc2cc(C(F)(F)F)nc(C(F)(F)F)c2)CC1)c1c[nH]c2ccccc12 [4-22] | 6.30 to 7.00 |
| CN(c1ccc(C(=O)N[C@H]2CC[C@@H](Nc3cc(C(F)(F)F)nc(C(F)(F)F)c3)CC2)cc1)S(C)(=O)=O [4-23] | 6.30 to 7.00 |
| Cc1cc(C)n(-c2ccc(C(=O)N[C@H]3CC[C@@H](Nc4cc(C(F)(F)F)nc(C(F)(F)F)c4)CC3)cc2)n1 [4-24] | 6.00 to 6.30 |
| O=C(N[C@H]1CC[C@@H](Nc2cc(C(F)(F)F)nc(C(F)(F)F)c2)CC1)c1ccc(-n2ccnc2)cc1 [4-25] | 6.30 to 7.00 |
| CN1CCCc2cccc(C(=O)N[C@H]3CC[C@@H](Nc4cc(C(F)(F)F)nc(C(F)(F)F)c4)CC3)c21 [4-26] | 5.60 to 6.00 |
| Nc1nc(C(=O)N[C@H]2CC[C@@H](Nc3cc(C(F)(F)F)nc(C(F)(F)F)c3)CC2)cs1 [4-27] | 6.30 to 7.00 |
| O=C(N[C@H]1CC[C@@H](Nc2cc(C(F)(F)F)nc(C(F)(F)F)c2)CC1)c1cccc(O)c1 [4-28] | 6.30 to 7.00 |
| CN(C)C(=O)N[C@H]1CC[C@@H](Nc2cc(C(F)(F)F)nc(C(F)(F)F)c2)CC1 [4-29] | 5.60 to 6.00 |
| O=C(N[C@H]1CC[C@@H](Nc2cc(C(F)(F)F)nc(C(F)(F)F)c2)CC1)c1ccc(-n2cnnn2)cc1 [4-30] | 6.30 to 7.00 |
